± gives the uncertainty stated by the source.
Test: xn = mol fraction of the nth substance listed

C=CCC[n+]1ccn(C)c1.[Br-] + O
viscosity [mPa·s], 101.33 kPa
Details | x1 = 0.0009034 | x1 = 0.00189 | x1 = 0.003585 | x1 = 0.005487 | x1 = 0.007167 | x1 = 0.008848
293.15 K | 1.018 ± 0.031 | 1.037 ± 0.032 | 1.071 ± 0.033 | 1.102 ± 0.034 | 1.136 ± 0.035 | 1.164 ± 0.036
298.15 K | 0.904 ± 0.028 | 0.92 ± 0.028 | 0.95 ± 0.029 | 0.977 ± 0.03 | 1.007 ± 0.031 | 1.031 ± 0.032
303.15 K | 0.809 ± 0.025 | 0.824 ± 0.025 | 0.85 ± 0.026 | 0.874 ± 0.027 | 0.901 ± 0.028 | 0.922 ± 0.028
308.15 K | 0.73 ± 0.022 | 0.742 ± 0.023 | 0.765 ± 0.023 | 0.788 ± 0.024 | 0.811 ± 0.025 | 0.83 ± 0.025
313.15 K | 0.662 ± 0.02 | 0.673 ± 0.021 | 0.694 ± 0.021 | 0.714 ± 0.022 | 0.735 ± 0.023 | 0.753 ± 0.023

CCCCC(CC)COC(=O)c1ccc(C(=O)OCC(CC)CCCC)c(C(=O)OCC(CC)CCCC)c1 (centres undefined) + O
101 kPa
Details | viscosity [mPa·s]
303.14 K, x2 = 0.019 | 151.1 ± 6.6
303.15 K, x2 = 0.0111 | 152.7 ± 5.4
303.15 K, x2 = 0.0169 | 151.2 ± 5.3
303.16 K, x2 = 0.00366 | 153.9 ± 5.4
303.16 K, x2 = 0.00372 | 153.9 ± 5.4
303.16 K, x2 = 0.00843 | 153.1 ± 5.4
303.16 K, x2 = 0.0124 | 152.2 ± 5.3
303.16 K, x2 = 0.0155 | 151.6 ± 5.9
303.16 K, x2 = 0.0164 | 151.4 ± 5.4

CCN1CCCC1=O + O
101 kPa
Details | viscosity [mPa·s]
298 K, x1 = 0.5 | 3.855 ± 0.047
323 K, x1 = 0.9 | 1.435 ± 0.018

COCCOCCO + O
viscosity [mPa·s]
Details | 293.15 K | 303.15 K | 308.15 K | 313.15 K | 323.15 K
101.3 kPa, x1 = 0.0164 | 1.374 ± 0.009 | 1.061 ± 0.007 | – | 0.8527 ± 0.0055 | 0.6962 ± 0.0046
101.3 kPa, x1 = 0.0361 | 1.895 ± 0.011 | 1.421 ± 0.009 | – | 1.108 ± 0.007 | 0.8862 ± 0.0057
101.3 kPa, x1 = 0.0603 | 2.602 ± 0.015 | 1.916 ± 0.011 | – | 1.445 ± 0.009 | 1.131 ± 0.007
101.3 kPa, x1 = 0.0909 | 3.571 ± 0.02 | 2.525 ± 0.014 | – | 1.858 ± 0.011 | 1.441 ± 0.009
101.3 kPa, x1 = 0.1298 | 4.594 ± 0.025 | 3.232 ± 0.018 | – | 2.367 ± 0.014 | 1.782 ± 0.01
101.3 kPa, x1 = 0.1836 | 5.705 ± 0.03 | 3.941 ± 0.022 | – | 2.848 ± 0.016 | 2.114 ± 0.012
101.3 kPa, x1 = 0.2589 | 6.431 ± 0.033 | 4.445 ± 0.024 | – | 3.193 ± 0.018 | 2.366 ± 0.014
101.3 kPa, x1 = 0.3739 | 6.442 ± 0.033 | 4.514 ± 0.025 | – | 3.269 ± 0.018 | 2.451 ± 0.014
101.3 kPa, x1 = 0.4594 | 6.083 ± 0.032 | 4.337 ± 0.024 | – | 3.174 ± 0.018 | 2.412 ± 0.014
101.3 kPa, x1 = 0.5736 | 5.544 ± 0.029 | 4.024 ± 0.022 | – | 2.994 ± 0.017 | 2.296 ± 0.013
101.3 kPa, x1 = 0.6641 | 5.108 ± 0.028 | 3.753 ± 0.021 | – | 2.849 ± 0.016 | 2.204 ± 0.013
101.3 kPa, x1 = 0.7397 | 4.791 ± 0.026 | 3.554 ± 0.02 | – | 2.724 ± 0.015 | 2.122 ± 0.012
101.3 kPa, x1 = 0.8287 | 4.441 ± 0.024 | 3.341 ± 0.019 | – | 2.594 ± 0.015 | 2.031 ± 0.012
101.3 kPa, x1 = 0.8794 | 4.286 ± 0.024 | 3.239 ± 0.018 | – | 2.511 ± 0.014 | 1.987 ± 0.011
101.3 kPa, x1 = 0.9331 | 4.149 ± 0.023 | 3.143 ± 0.018 | – | 2.455 ± 0.014 | 1.955 ± 0.011
101.33 kPa, x1 = 0.013 | – | – | 0.914 ± 0.008 | – | –
101.33 kPa, x1 = 0.0426 | – | – | 1.445 ± 0.011 | – | –
101.33 kPa, x1 = 0.058 | – | – | 1.73 ± 0.013 | – | –
101.33 kPa, x1 = 0.0793 | – | – | 2.131 ± 0.017 | – | –
101.33 kPa, x1 = 0.0999 | – | – | 2.476 ± 0.02 | – | –
101.33 kPa, x1 = 0.1286 | – | – | 2.872 ± 0.023 | – | –
101.33 kPa, x1 = 0.1865 | – | – | 3.333 ± 0.028 | – | –
101.33 kPa, x1 = 0.3088 | – | – | 3.876 ± 0.035 | – | –
101.33 kPa, x1 = 0.4518 | – | – | 3.836 ± 0.037 | – | –
101.33 kPa, x1 = 0.5434 | – | – | 3.625 ± 0.036 | – | –
101.33 kPa, x1 = 0.6518 | – | – | 3.448 ± 0.036 | – | –
101.33 kPa, x1 = 0.7694 | – | – | 3.235 ± 0.036 | – | –
101.33 kPa, x1 = 0.9087 | – | – | 2.996 ± 0.036 | – | –
101.33 kPa, x2 = 0.0109 | – | – | 2.874 ± 0.035 | – | –

Nc1ccc(S(=O)(=O)O)cc1 + O
101 kPa
Details | viscosity [mPa·s]
298.15 K, x1 = 0.0001913 | 0.8949 ± 0.0056
298.15 K, x1 = 0.0003038 | 0.8969 ± 0.0056
298.15 K, x1 = 0.0004208 | 0.899 ± 0.0057
298.15 K, x1 = 0.0005447 | 0.8999 ± 0.0057
298.15 K, x1 = 0.0006999 | 0.9031 ± 0.0057
308.15 K, x1 = 0.000111 | 0.7215 ± 0.0047
308.15 K, x1 = 0.0001913 | 0.7221 ± 0.0047
308.15 K, x1 = 0.0003038 | 0.724 ± 0.0047
308.15 K, x1 = 0.0003839 | 0.7252 ± 0.0048
308.15 K, x1 = 0.0004208 | 0.7255 ± 0.0048
308.15 K, x1 = 0.0006999 | 0.7281 ± 0.0048
318.15 K, x1 = 0.0002046 | 0.5999 ± 0.0042
318.15 K, x1 = 0.0003685 | 0.601 ± 0.0042
318.15 K, x1 = 0.0005157 | 0.6033 ± 0.0042
318.15 K, x1 = 0.0006087 | 0.6041 ± 0.0042
318.15 K, x1 = 0.0006767 | 0.6049 ± 0.0042
318.15 K, x1 = 0.0007735 | 0.6055 ± 0.0042

Nc1ccc(S(N)(=O)=O)cc1 + O
viscosity [mPa·s], 101 kPa
Details | x1 = 0.0001938 | x1 = 0.000331 | x1 = 0.0004378 | x1 = 0.0004556 | x1 = 0.000456 | x1 = 0.0005923 | x1 = 0.0007136
298.15 K | 0.8931 ± 0.0056 | 0.895 ± 0.0056 | 0.8965 ± 0.0057 | 0.897 ± 0.0057 | – | 0.899 ± 0.0057 | 0.9008 ± 0.0057
308.15 K | 0.7207 ± 0.0047 | 0.7224 ± 0.0047 | 0.7234 ± 0.0048 | 0.724 ± 0.0048 | – | 0.7254 ± 0.0048 | –
318.15 K | 0.5965 ± 0.0042 | 0.5979 ± 0.0042 | 0.5992 ± 0.0042 | – | 0.5993 ± 0.0042 | 0.6007 ± 0.0042 | 0.6015 ± 0.0042

Reference: the CheMixHub viscosity set
